In US5618675A, “Methods and compositions for detecting lipopolysaccharides using CAP18 fragments” (Panorama Research, Inc., dated 1997):

Tested on: multiple drug-resistant Mycobacterium tuberculosis
Assay: Antimicrobial activity
Format: cell-based
Settings: range 0-20 μg/ml

| Substance | activity versus multiple drug-resistant Mycobacterium tuberculosis |
| --- | --- |
| 36-1: synthetic rabbit RNIP-derived fragment, amino acids 135-166 of SEQ ID NO:4 (GLRKRLRKFRNKIKEKLKKIGQKIQGLLPKLA) | inactive |
| RNIP: reactive nitrogen inhibitory protein, amino acids 135-171 of SEQ ID NO:4 (rabbit CAP18 C-terminus); purified from granulocytes or synthetic (#197) (GLRKRLRKFRNKIKEKLKKIGQKIQGLLPKLAPRTDY) | inactive |
